Assays:
σ1 receptors = conditions: cited from earlier work; for affinity for σ1 receptors relative to haloperidol: rodent brain membranes and human neuroblastoma cells
D2 receptors = conditions: compared with haloperidol; cited from earlier work
[1] = tested on: cyclophosphamide-induced cystitis; format: in vivo, mice
Description: (§1) Testing took place during the light phase (from 9.00 h to 15.00 h).

sigma receptor = conditions: cited from earlier work
sigma-1 receptors = conditions: both in experimental animals and human cells; cited from earlier work
[2] = tested on: cyclophosphamide-induced cystitis; conditions: cyclophosphamide 300 mg/kg i.p., WT mice
Description: as §1

For `OC1(c2ccc(Cl)cc2)CCNCC1` [metabolite I, 4-(4-chlorophenyl)-4-hydroxypiperidine], the “affinity for σ1 receptors relative to haloperidol” value (σ1 receptors) is listed as “less affinity than haloperidol” and the “affinity for D2 receptors” value (D2 receptors) is listed as “no affinity”.

In the case of `CN1CC[C@]23c4c5ccc(O)c4O[C@H]2[C@@H](O)C=C[C@H]3[C@H]1C5.Cl` [morphine, Morphine hydrochloride], the “50% mechanical threshold, referred mechanical hyperalgesia” value ([1]; mouse, in vivo) is reported as “increase the mechanical threshold to above the control value”.

In the case of `CC(C)=CCN1CCC2(C)c3cc(O)ccc3CC1C2C` (stereo not shown) [pentazocine], the “affinity of sigma receptors for analgesics” value (sigma receptor) is listed as “very high affinity”.

In the case of `OC(CCCN1CCC(O)(c2ccc(Cl)cc2)CC1)c1ccc(F)cc1` (stereo not shown) [metabolite II, 4-(4-chlorophenyl)-[…]-(4-fluorophenyl)-4-hydroxy-1-piperidinebutanol], the “affinity for sigma-1 receptors” value (σ1 receptors) is listed as “high affinity (in the low nanomolar range)”, the “affinity for σ1 receptors relative to haloperidol” value (σ1 receptors) is listed as “less affinity than haloperidol” and the “affinity for D2 receptors” value (D2 receptors) is listed as “much lower”. For the same compound, the “blockade of sigma-1 receptors” value (sigma-1 receptors) was “irreversible blockade”.

In the case of `O=P1(N(CCCl)CCCl)NCCCO1` (stereo not shown) [cyclophosphamide], the “pain score (pain-related behaviors)” value [2] is reported as “maximum pain score” and the “mechanical threshold for referred hyperalgesia” value ([1]; cyclophosphamide 100 mg/kg i.p., WT and σ1-KO mice) is reported as “maximum reduction in the mechanical threshold”.
